Columns and labels:
[1] = target: T1, Vasopressin V2 (Rattus norvegicus, UniProt Q00788); assay: Vasopressin V2 agonist effects of test compounds in normal conscious water-loaded rats; format: in vivo; conditions: oral dose of 10 mg/Kg, urine collected for four hours, Sprague-Dawley (CD) rats; for Urine Volume (% decrease): percent decrease in urine volume vs control; for Urinary Osmolality (% increase): percent increase in osmolality vs control
T1 construct: Vasopressin V2 Agonist Effects of Test Compounds in Normal Conscious Water-Loaded Rats; from tissue; host or cells: whole animal: conscious Sprague-Dawley rats (kidney collecting ducts in vivo)
Text: Vasopressin V2 Agonist Effects of Test Compounds in Normal Conscious Water-Loaded Rats
Male or female normotensive Sprague-Dawley rats (Charles River Laboratories, Inc., Kingston, N.Y.) of 350-500 g body weight were supplied with standard rodent diet (Purina Rodent Lab. Chow 5001) and water ad libitum. On the day of test, rats were placed individually into metabolic cages equipped with devices to separate the feces from the urine and containers for collection of urine. A test compound or a reference agent was given at an oral dose of 10 mg/Kg in a volume of 10 mL/Kg. The vehicle used was 2.5% preboiled corn starch in 20% dimethylsulfoxide (DMSO). Thirty minutes after dosing the test compound, rats were gavaged with water at 30 mL/Kg into the stomach using a feeding needle. During the test, rats were not provided with water or food. Urine was collected for four hours after dosing of the test compound. At the end of four hours, urine volume was measured. Urinary osmolality was determined using a Fiske One-Ten Osmometer (Fiske Associates, Norwood, Mass., 02062) or an Advanced CRYOMATIC Osmometer, Model 3C2 (Advanced Instruments, Norwood, Mass.). Determinations of Na^+, K^+ and Cl^− ion were carried out using ion specific electrodes in a Beckman SYNCHRON ELISE Electrolyte System analyzer. The urinary osmolality should increase proportionally. In the screening test, two rats were used for each compound. If the difference in the urine volume of the two rats was greater than 50%, a third rat was used.

T1 sequence (Q00788 whole entry): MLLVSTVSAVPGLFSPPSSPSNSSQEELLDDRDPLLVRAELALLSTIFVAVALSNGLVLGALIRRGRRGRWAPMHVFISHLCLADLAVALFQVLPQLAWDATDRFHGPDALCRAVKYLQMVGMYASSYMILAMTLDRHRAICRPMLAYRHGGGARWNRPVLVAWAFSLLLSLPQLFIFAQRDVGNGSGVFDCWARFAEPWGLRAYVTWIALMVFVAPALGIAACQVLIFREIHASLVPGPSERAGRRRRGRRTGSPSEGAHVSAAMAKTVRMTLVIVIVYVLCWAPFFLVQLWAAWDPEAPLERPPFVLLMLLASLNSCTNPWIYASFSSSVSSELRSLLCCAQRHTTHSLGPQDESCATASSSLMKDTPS

| Structure (SMILES) | melting point | Urine Volume (% decrease) [1] | Urinary Osmolality (% increase) [1] |
| --- | --- | --- | --- |
| CN1c2ccccc2CN(C(=O)c2ccc(-c3ccccc3)cc2)c2ccccc21 [Example 7, [1,1′-Biphenyl]-4-yl-(5-methyl-5,11-dihydro-10H-dibenzo[b,e][1,4]diazepin-10-yl)methanone] | 198 to 201 °C | 70% | 189% |
| CN1c2ccccc2N(C(=O)c2ccc(-c3ccccc3)cc2)Cc2cccnc21 [Example 5, [1,1′-Biphenyl]-4-yl-(11-methyl-5,11-dihydro-benzo[b]pyrido[2,3-e][1,4]diazepin-6-yl)-methanone] | 220 to 223 °C | 22% | 26% |
| COc1ccc(-c2ccc(C(=O)N3Cc4cccn4Cc4ccccc43)c(C)c2)cc1 [Example 10, (5H,11H-Benzo[e]pyrrolo[1,2-a][1,4]diazepin-10-yl)-(4′-methoxy-3-methyl-[1,1′-biphenyl]-4-yl)-methanone] |  | 60% | 234% |
| COc1ccc(-c2ccc(C(=O)N3Cc4cccn4Cc4ccccc43)cc2)cc1 [Example 3, (10,11-Dihydro-5H-pyrrolo[2,1-c][1,4]benzodiazepin-10-yl)-(4′-methoxy[1,1′-biphenyl]-4-yl)-methanone] | 187 to 189 °C | 18% | 78% |
| COc1ccccc1-c1ccc(C(=O)N2Cc3cccn3Cc3ccccc32)cc1 [Example 1, (2′-Methoxy-[1,1′-biphenyl]-4-yl)-(5H,11H-pyrrolo[2,1-c][1,4]benzodiazepin-10-yl)-methanone] | 145 to 147 °C | 67% | 163% |
| O=C(c1ccc(-c2ccccc2)cc1)N1CCCCc2sccc21 [Example 8, [1,1′-Biphenyl]-4-yl-(5,6,7,8-tetrahydro-thieno[3,2-b]azepin-4-yl)-methanone] | 164 to 166 °C | 35% | 73% |
| O=C(c1ccc(-c2ccccc2)nc1)N1Cc2cccn2Cc2ccccc21 [Example 9, (5H,11H-Benzo[e]pyrrolo[1,2-a][1,4]diazepin-10-yl)-(6-phenyl-pyridin-3-yl)-methanone] | 171 to 174 °C | 62% | 156% |
| O=C(c1ccc(-c2ccccc2)cc1)N1Cc2ccccc2Nc2ccccc21 [Example 6, [1,1′-Biphenyl]-4-yl-(5,11-dihydro-10H-dibenzo[b,e][1,4]diazepin-10-yl)methanone] | 180 to 182 °C | 87% | 247% |
| Cc1cccc(-c2ccc(C(=O)N3Cc4cccn4Cc4ccccc43)cc2)c1 [Example 2, (10,11-Dihydro-5H-pyrrolo[2,1-c][1,4]benzodiazepin-10-yl)-(3′-methyl-[1,1′-biphenyl]-4-yl)-methanone] | 128 to 130 °C | 27% | 33% |
| O=C(c1ccc(-c2ccccc2)cc1)N1Cc2cccnc2Nc2ccccc21 [Example 4, [1,1′-Biphenyl]-4-yl-(5,11-dihydro-benzo[b]pyrido[2,3-e][1,4]diazepin-6-yl)-methanone] | 175 to 177 °C | 56% | 151% |

Source: US7465722B2, “Biphenyl vasopressin agonists” (Wyeth, priority 2001, dated 2008)
